Read-outs that look alike come from different tables or passages of the source. Peptide text beside a SMILES is read from it. * marks the point of attachment. βNA = c1ccc2cc(N*)ccc2c1
Experiments:
Type in all cases: biochemical
[1] = tested on: Actinomyces israeli; settings: β-naphthylamine liberated after 60 minutes, 37° C.
Procedure: (§1) The enzyme activity was measured by the chromogenic properties of N-CBz-glycyl-glycyl-L-arginine-β-naphthylamide which upon hydrolysis gives a visible color. The aminopeptidase activities listed in the table reflect the nanomoles of β-naphthylamine liberated after 60 minutes under the conditions described below.
(§2) After mixing, the solution is incubated for 1 hour at 37° C. and then 0.4 ml of a solution of stabilized diazonium salt, Fast Garnet GBC (0.5 mg/ml) in a 1M acetic acid buffer (pH 4.2), containing 10% Tween 20 was added to the mixture. After standing for 15 minutes at room temperature, the color reaction can be read manually by comparison with standard solutions or the absorbancy can be determined using a spectrophotometer at 525 nm. The reaction mixture without enzyme solution is used as a control.
(§3) The enzyme activity and the aminopeptidase activities were determined in the manner described above in regard to Table I.

[2] = tested on: A. seminis; settings: strain ATCC 15768; β-naphthylamine liberated after 60 minutes, 37° C.
Procedure: as §1, §2, §3

[3] = tested on: Campylobacter sputorum; settings: strain Ba1-21; β-naphthylamine liberated after 60 minutes, 37° C.
Procedure: as §1, §2, §3

[4] = tested on: Streptococcus mitis; settings: β-naphthylamine liberated after 60 minutes, 37° C.
Procedure: as §1, §2, §3

[5] = tested on: Actinobacillus actinomycetemcomitans; settings: β-naphthylamine liberated after 60 minutes, 37° C.
Procedure: as §1, §2, §3

[6] = tested on: V. parvula; settings: strain ATCC 10790; β-naphthylamine liberated after 60 minutes, 37° C.
Procedure: as §1, §2, §3

[7] = tested on: Veillonella sp.; settings: strain SE1M2; β-naphthylamine liberated after 60 minutes, 37° C.
Procedure: as §1, §2, §3

[8] = tested on: S. mutans; settings: strain ATCC 25175; β-naphthylamine liberated after 60 minutes, 37° C.
Procedure: as §1, §2, §3

[9] = tested on: S. sanguis; settings: β-naphthylamine liberated after 60 minutes, 37° C.
Procedure: as §1, §2, §3

[10] = tested on: Fusobacterium nucleatum; settings: β-naphthylamine liberated after 60 minutes, 37° C.
Procedure: as §1, §2, §3

[11] = tested on: A. viscosus; settings: β-naphthylamine liberated after 60 minutes, 37° C.
Procedure: as §1, §2, §3

[12] = tested on: "Anaerobic vibrio"; settings: strain SN2T2; β-naphthylamine liberated after 60 minutes, 37° C.
Procedure: as §1, §2, §3

[13] = tested on: Bacteroides gingivalis; settings: β-naphthylamine liberated after 60 minutes, 37° C.
Procedure: as §1, §2

[14] = tested on: B. mel. ss. intermedius; settings: β-naphthylamine liberated after 60 minutes, 37° C.
Procedure: as §1, §2

[15] = tested on: Capnocytophaga sp.; settings: strain JD3-5; β-naphthylamine liberated after 60 minutes, 37° C.
Procedure: as §1, §2

[16] = tested on: B. loescheii; settings: β-naphthylamine liberated after 60 minutes, 37° C.
Procedure: as §1, §2

[17] = tested on: B. asaccharolyticus; settings: β-naphthylamine liberated after 60 minutes, 37° C.
Procedure: as §1, §2

[18] = tested on: Capnocytophaga gingivalis; settings: strain ATCC 33624; β-naphthylamine liberated after 60 minutes, 37° C.
Procedure: as §1, §2

[19] = tested on: B. levii; settings: β-naphthylamine liberated after 60 minutes, 37° C.
Procedure: as §1, §2

[20] = tested on: C. ochracea; settings: strain ATCC 27872; β-naphthylamine liberated after 60 minutes, 37° C.
Procedure: as §1, §2

[21] = tested on: F. periodonticum; test: Aminopeptidase activity on β-naphthylamide substrates; settings: strain EK1-15; β-naphthylamine liberated after 60 minutes, 37° C.
Procedure: as §1, §2, §3

[22] = tested on: A. equuli; test: as above; settings: strain ATCC 19392; β-naphthylamine liberated after 60 minutes, 37° C.
Procedure: as §1, §2, §3

[23] = tested on: Lactobacillus casei; test: as above; settings: β-naphthylamine liberated after 60 minutes, 37° C.
Procedure: as §1, §2, §3

[24] = tested on: Haemophilus aphrophilus; test: as above; settings: β-naphthylamine liberated after 60 minutes, 37° C.
Procedure: as §1, §2, §3

[25] = tested on: L. fermentum; test: as above; settings: strain ATCC 11581; β-naphthylamine liberated after 60 minutes, 37° C.
Procedure: as §1, §2, §3

[26] = tested on: S. salivarius; test: as above; settings: β-naphthylamine liberated after 60 minutes, 37° C.
Procedure: as §1, §2, §3

[27] = tested on: A. suis; test: as above; settings: strain ATCC 15557; β-naphthylamine liberated after 60 minutes, 37° C.
Procedure: as §1, §2, §3

Measured: Aminopeptidase activity

NC(=O)[C@@H](N)CCC(=O)O [α-Glu, α -glutamine]
3 nmol: [23]; strain ATCC 11578 | [23]; strain ATCC 11582
1 nmol: [3] | [10]; strain D31A-24 | [13]; strain ATCC 33277
5 nmol: [18] | [20]
2 nmol: [19]; strain 18-1-8
0 nmol: [1]; strain ATCC 12103 | [1]; strain DK2-3 | [2] | [4]; strain ATCC 9815 | [4]; strain ATCC 15909 | [4]; strain ATCC 15911 | [4]; strain ATCC 15912 | [5]; strain 67 | [5]; strain 75 | [5]; strain ATCC 29523 | [5]; strain NCTC 9709 | [5]; strain Y4 | [6] | [7] | [8] | [9]; strain ATCC 10556 | [9]; strain ATCC 10557 | [10]; strain 2 | [10]; strain ATCC 25586 | [11]; strain ATCC 19246 | [11]; strain T14V | [12] | [13]; strain 9-14K-1 | [13]; strain 11-1-2 | [13]; strain 381 | [13]; strain 1021 | [13]; strain FAYE 19m-1 | [14]; strain ATCC 25261 | [14]; strain ATCC 33563 | [14]; strain NCTC 9336 | [15] | [16]; strain ATCC 15930 | [16]; strain VPI4196 | [17]; strain 536B | [17]; strain ATCC 18569 | [17]; strain ATCC 25260 | [17]; strain ATCC 27067 | [17]; strain NY446 | [19]; strain 18-1-5 | [21] | [22] | [23]; strain ATCC 7469 | [24]; strain ATCC 13252 | [24]; strain ATCC 19415 | [24]; strain NCTC 5908 | [25] | [26]; strain ATCC 9759 | [26]; strain ATCC 25975 | [27]

C[C@H](N)C(=O)N[C@@H](C)C(=O)N[C@@H](Cc1ccccc1)C(=O)Nc1ccc2ccccc2c1 [Ala-Ala-Phe] (H-Ala-Ala-Phe-βNA)
2 nmol: [9]; strain ATCC 10556 | [10]; strain 2 | [11]; strain ATCC 19246
3 nmol: [1]; strain ATCC 12103 | [4]; strain ATCC 9815 | [5]; strain 67 | [10]; strain ATCC 25586 | [13]; strain FAYE 19m-1 | [23]; strain ATCC 11578 | [23]; strain ATCC 11582
5 nmol: [25]
0 nmol: [1]; strain DK2-3 | [2] | [3] | [4]; strain ATCC 15911 | [4]; strain ATCC 15912 | [5]; strain ATCC 29523 | [5]; strain Y4 | [6] | [7] | [8] | [10]; strain D31A-24 | [12] | [13]; strain 9-14K-1 | [13]; strain 11-1-2 | [13]; strain 381 | [13]; strain 1021 | [14]; strain ATCC 25261 | [14]; strain ATCC 33563 | [14]; strain NCTC 9336 | [15] | [16]; strain VPI4196 | [17]; strain 536B | [17]; strain ATCC 18569 | [17]; strain ATCC 25260 | [17]; strain ATCC 27067 | [17]; strain NY446 | [19]; strain 18-1-5 | [19]; strain 18-1-8 | [22] | [23]; strain ATCC 7469 | [24]; strain ATCC 13252 | [24]; strain ATCC 19415 | [24]; strain NCTC 5908 | [26]; strain ATCC 9759 | [26]; strain ATCC 25975 | [27]
1 nmol: [4]; strain ATCC 15909 | [5]; strain 75 | [5]; strain NCTC 9709 | [9]; strain ATCC 10557 | [13]; strain ATCC 33277 | [16]; strain ATCC 15930 | [21]
82 nmol: [20]
72 nmol: [18]
4 nmol: [11]; strain T14V

Source: patent US4994376A, “Detection of bacteroides gingivalis” (priority 1987, dated 1991)
